Our source for the PFA values is ChEMBL document CHEMBL1124311, “Synthesis and antiallergy activity of 4-(diarylhydroxymethyl)-1-[3-(aryloxy)propyl]piperidines and structurally related compounds” (J Med Chem, 1989).

Common to all, as to format: functional, organism-based
Test [1] has as its system Rattus norvegicus. Kind of test: Oral antiallergy activity in the passive foot anaphylaxis (PFA) model of rat, at a dose of 10 (mg/kg); Activity between positive and negative control groups.
The test system of test [2] is Rattus norvegicus. In words: Oral antiallergy activity in the passive foot anaphylaxis (PFA) model of rat, at a dose of 3.16 (mg/kg); not significantly different from negative control group.
Test [3] deals with Rattus norvegicus. In words: Oral antiallergy activity in the passive foot anaphylaxis (PFA) model of rat, at a dose of 10 (mg/kg); Activity equal to positive control group.

In the case of `CCOC(=O)c1cccc(OCCCN2CCC(C(O)(c3ccc(F)cc3)c3ccc(F)cc3)CC2)c1`, the PFA result is “Activity between positive and negative control groups” in test [1]; “Activity between positive and negative control groups” in test [2].

Regarding `Oc1ccccc1OCCCN1CCC(C(O)(c2ccc(F)cc2)c2ccc(F)cc2)CC1`, the PFA entry in test [2] and in test [3] was “Activity equal to positive control group” each time. In the case of `COc1cccc(OC)c1OCCCN1CCC(C(O)(c2ccc(F)cc2)c2ccc(F)cc2)CC1`, the PFA entry in test [1] is “Activity between positive and negative control groups”; in test [2], “Activity between positive and negative control groups”. For the molecule `CS(=O)(=O)c1ccc(OCCCN2CCC(C(O)(c3ccc(F)cc3)c3ccc(F)cc3)CC2)cc1`, the PFA entry in test [2] and in test [3] was “Activity equal to positive control group” in each case. As for `CC(=O)c1cccc(OCCCN2CCC(C(O)(c3ccc(F)cc3)c3ccc(F)cc3)CC2)c1`, the PFA result in test [1] is “Activity between positive and negative control groups”; in test [2] it was “Activity between positive and negative control groups”. Regarding `O=C(c1ccccc1)c1ccc(OCCCN2CCC(C(O)(c3ccc(F)cc3)c3ccc(F)cc3)CC2)cc1`, the PFA entry in test [1] was “Activity between positive and negative control groups”; in test [2], “Activity between positive and negative control groups”.

Take `COc1cc(C(C)=O)ccc1OCCCN1CCC(C(=O)c2ccccc2)CC1`: the PFA entry in test [3] is listed as “Activity equal to positive control group”. Regarding `COc1cc(C(C)=O)ccc1OCCCN1CCN(C(c2ccccc2)c2ccccc2)CC1`, in test [3], the PFA result is listed as “Activity equal to positive control group”. In the case of `CSc1ccc(OCCCN2CCC(C(O)(c3ccc(F)cc3)c3ccc(F)cc3)CC2)cc1`, the PFA result in test [2] and in test [3] was “Activity equal to positive control group” each time. With `COc1cc(C(C)=O)ccc1OCCN1CCC(C(O)(c2ccc(F)cc2)c2ccc(F)cc2)CC1`, the PFA result in test [3] is listed as “Activity equal to positive control group”.

For the molecule `NS(=O)(=O)c1ccc(OCCCN2CCC(C(O)(c3ccc(F)cc3)c3ccc(F)cc3)CC2)cc1`, the PFA result was “Activity between positive and negative control groups” in test [1]; “Activity between positive and negative control groups” in test [2]. As to `CC(=O)c1ccccc1OCCCN1CCC(C(O)(c2ccc(F)cc2)c2ccc(F)cc2)CC1`, the PFA entry in test [1] was “Activity between positive and negative control groups”; in test [2] it was “Activity between positive and negative control groups”. For `OC(c1ccccc1)(c1ccccc1)C1CCN(CCCOc2ccccc2)CC1`, the PFA result in test [3] is reported as “Activity equal to positive control group”. On to `COc1cccc(OCCCN2CCC(C(O)(c3ccc(F)cc3)c3ccc(F)cc3)CC2)c1`, for which the PFA result in test [1] is “Activity between positive and negative control groups”; in test [2], “Activity between positive and negative control groups”. Turning to `COc1cc(C(C)=O)ccc1OCCCN1CCC(C(c2ccccc2)c2ccccc2)CC1`, the PFA entry in test [3] is recorded as “Activity equal to positive control group”.

On to `CC(C)c1ccc(OCCCN2CCC(C(O)(c3ccc(F)cc3)c3ccc(F)cc3)CC2)cc1`, for which the PFA result is “Activity between positive and negative control groups” in test [1]; “Activity between positive and negative control groups” in test [2].

For `COC(=O)c1ccc(OCCCCN2CCC(C(O)(c3ccc(F)cc3)c3ccc(F)cc3)CC2)cc1`, the PFA entry in test [1] was “Activity between positive and negative control groups”; in test [2], “Activity between positive and negative control groups”. As to `C[S+]([O-])c1ccc(OCCCN2CCC(C(O)(c3ccc(F)cc3)c3ccc(F)cc3)CC2)cc1` (configuration not stated), the PFA result in test [1] was “Activity between positive and negative control groups”; in test [2], “Activity between positive and negative control groups”.

As to `COc1cc(C(C)=O)ccc1OCCCN1CCN(c2ccccc2)CC1`, the PFA entry in test [3] is “Activity equal to positive control group”.
